According to ChEMBL document CHEMBL1201862, “PubChem BioAssay data set” (2004):
Where a name gives a salt, the structure may show the parent alone.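 96-well plates; 48 h exposure; 5 concentrations. Endpoints by linear interpolation between flanking doses. Not reached: highest tested concentration assigned. Abbreviation: GI50, concentration required for 50% inhibition of growth.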 Active and inactive are the calls of the source. Cut-off read from the data, not from the text of the source: active = GI50 up to about 1.1 µM and inactive = higher. Starred links: 1 amine or outer side, 2 acyl side, 3 side chain; linkers in the order of their positions; H or OH if unused. Non-standard residues stand in square brackets, D forms with d. Residues, ends and D or L forms follow the SMILES beside them. ξ: configuration not given here. Ile(3ξ) = CCC(C)[C@H](N)C(=O)O; X35 = C=CCC(O[*:1])C(=O)[*:2]; NMeV = CN[C@H](C(=O)O)C(C)C; NMeA = CN[C@@H](C)C(=O)O; βAla = NCCC(=O)O

Legend:
Experiment in all cases: growth of human tumour cells (NCI), 48 h
HT-29 = tested on: HT-29
LXFL 529 = tested on: LXFL 529
SK-MEL-2 = tested on: SK-MEL-2
SNB-75 = tested on: SNB-75
HCT-116 = tested on: HCT-116
OVCAR-8 = tested on: OVCAR-8
SF-295 = tested on: SF-295
A549 = tested on: A549
HOP-92 = tested on: HOP-92
TK-10 = tested on: TK-10
NCI-H23 = tested on: NCI-H23
M14 = tested on: M14
EKVX = tested on: EKVX
RPMI-8226 = tested on: RPMI-8226
DLD-1 = tested on: DLD-1
UO-31 = tested on: UO-31
UACC-257 = tested on: UACC-257
UACC-62 = tested on: UACC-62
DMS-114 = tested on: DMS-114
SF-268 = tested on: SF-268
LOX IMVI = tested on: LOX IMVI
RXF 631 = tested on: RXF 631
SK-MEL-28 = tested on: SK-MEL-28
NCI-H226 = tested on: NCI-H226
HCC 2998 = tested on: HCC 2998
HCT-15 = tested on: HCT-15
COLO 205 = tested on: COLO 205
SK-OV-3 = tested on: SK-OV-3
OVCAR-4 = tested on: OVCAR-4
IGROV-1 = tested on: IGROV-1
CCRF-CEM = tested on: CCRF-CEM
786-0 = tested on: 786-0
SF-539 = tested on: SF-539
OVCAR-5 = tested on: OVCAR-5
KM-20L2 = tested on: KM-20L2
KM12 = tested on: KM12
Malme-3M = tested on: Malme-3M
OVCAR-3 = tested on: OVCAR-3
K562 = tested on: K562
HL-60 = tested on: HL-60
HOP-18 = tested on: HOP-18
XF498 = tested on: XF498
M19-MEL = tested on: M19-MEL
CAKI-1 = tested on: CAKI-1
SW-620 = tested on: SW-620
RXF 393 = tested on: RXF 393
A498 = tested on: A498
SK-MEL-5 = tested on: SK-MEL-5
MOLT-4 = tested on: MOLT-4
SNB-19 = tested on: SNB-19
SN12C = tested on: SN12C
SNB-78 = tested on: SNB-78
NCI-H460 = tested on: NCI-H460
HOP-62 = tested on: HOP-62
ACHN = tested on: ACHN
DMS-273 = tested on: DMS-273
SR = tested on: SR
U-251 = tested on: U-251
NCI-H522 = tested on: NCI-H522

Measured: GI50

CC1=NCCc2c1[nH]c1cc(O)ccc21 [HARMALOL HYDROCHLORIDE]
inactive: HT-29 > 100 µM | LXFL 529 > 100 µM | SK-MEL-2 > 100 µM | SNB-75 > 100 µM | HCT-116 > 100 µM | OVCAR-8 > 100 µM | SF-295 > 100 µM | A549 > 100 µM | HOP-92 > 100 µM | TK-10 > 100 µM | NCI-H23 > 100 µM | M14 > 100 µM | EKVX > 100 µM | RPMI-8226 > 100 µM | DLD-1 > 100 µM | UO-31 > 100 µM | UACC-257 > 100 µM | UACC-62 > 100 µM | DMS-114 > 100 µM | SF-268 > 100 µM | LOX IMVI > 100 µM | RXF 631 > 100 µM | SK-MEL-28 > 100 µM | NCI-H226 > 100 µM | HCC 2998 > 100 µM | COLO 205 > 100 µM | SK-OV-3 > 100 µM | OVCAR-4 > 100 µM | IGROV-1 > 100 µM | CCRF-CEM > 100 µM | 786-0 > 100 µM | SF-539 > 100 µM | OVCAR-5 > 100 µM | KM-20L2 > 100 µM | KM12 > 100 µM | Malme-3M > 100 µM | OVCAR-3 > 100 µM | K562 > 100 µM | HL-60 > 100 µM | HOP-18 > 100 µM | XF498 > 100 µM | M19-MEL > 100 µM | CAKI-1 > 100 µM | SW-620 > 100 µM | RXF 393 > 100 µM | A498 > 100 µM | SK-MEL-5 > 100 µM | MOLT-4 > 100 µM | SNB-19 > 100 µM | SN12C > 100 µM | SNB-78 > 100 µM | NCI-H460 > 100 µM | HOP-62 > 100 µM | ACHN > 100 µM
> 100 µM: HCT-15

C=CCC1OC(=O)CCNC(=O)[C@H](C)N(C)C(=O)[C@H](C(C)C)N(C)C(=O)[C@H](C(C)CC)NC(=O)[C@@H]2CCCN2C1=O (some centres undefined) (cyclo([Ile(3ξ)][NMeV][NMeA][βAla][X35]P))
inactive: HT-29 2.99 µM | LXFL 529 3.94 µM | SK-MEL-2 3.13 µM | SNB-75 > 21.1 µM | HCT-116 3.94 µM | OVCAR-8 16.2 µM | SF-295 4.41 µM | A549 9.08 µM | HOP-92 8.93 µM | TK-10 > 38.3 µM | NCI-H23 26.7 µM | M14 2.61 µM | EKVX > 100 µM | RPMI-8226 4.91 µM | DLD-1 10.4 µM | UO-31 33 µM | UACC-257 4.71 µM | UACC-62 4.08 µM | DMS-114 7.5 µM | SF-268 4.12 µM | LOX IMVI 9.16 µM | RXF 631 4.92 µM | SK-MEL-28 33.8 µM | DMS-273 3.63 µM | NCI-H226 7.55 µM | HCC 2998 5.31 µM | COLO 205 5.14 µM | SK-OV-3 99.1 µM | OVCAR-4 6.75 µM | SR 4.95 µM | IGROV-1 33.6 µM | CCRF-CEM 3.62 µM | 786-0 5.58 µM | SF-539 10.1 µM | OVCAR-5 13.6 µM | KM-20L2 3.18 µM | KM12 8.43 µM | Malme-3M 3.28 µM | OVCAR-3 13.3 µM | K562 5 µM | HL-60 3.39 µM | XF498 3.65 µM | M19-MEL 5.96 µM | CAKI-1 8.93 µM | SW-620 5.07 µM | RXF 393 > 100 µM | A498 > 71.6 µM | SK-MEL-5 2.97 µM | MOLT-4 3.57 µM | SNB-19 > 39.4 µM | SN12C 11.5 µM | SNB-78 > 100 µM | NCI-H460 4.94 µM | HOP-62 4.09 µM | ACHN 27.9 µM | U-251 > 53 µM
23 µM: HCT-15

Cc1c(C(=O)C/C(=N/NC(=O)c2ccccc2)C(=O)Nc2ccc(Cl)cc2)[n+]([O-])c2ccccc2[n+]1[O-]
68.5 µM: HCT-15
inactive: HT-29 > 100 µM | LXFL 529 84.3 µM | SK-MEL-2 > 100 µM | SNB-75 > 100 µM | HCT-116 > 100 µM | OVCAR-8 > 100 µM | SF-295 63.8 µM | A549 > 100 µM | NCI-H522 38.4 µM | TK-10 > 100 µM | NCI-H23 38.7 µM | M14 > 100 µM | RPMI-8226 80.4 µM | DLD-1 75.7 µM | UACC-257 69.8 µM | DMS-114 32.6 µM | SF-268 > 100 µM | LOX IMVI 89.1 µM | RXF 631 > 100 µM | SK-MEL-28 > 100 µM | DMS-273 75.2 µM | NCI-H226 > 100 µM | COLO 205 > 100 µM | SK-OV-3 > 100 µM | OVCAR-4 > 100 µM | SR 63.8 µM | IGROV-1 99.5 µM | CCRF-CEM 32.4 µM | 786-0 > 100 µM | SF-539 > 100 µM | OVCAR-5 79.3 µM | KM12 > 100 µM | Malme-3M > 100 µM | OVCAR-3 41.6 µM | K562 69 µM | HL-60 29 µM | HOP-18 > 100 µM | XF498 > 100 µM | CAKI-1 82.4 µM | SW-620 46.2 µM | RXF 393 85.1 µM | A498 > 100 µM | SK-MEL-5 > 100 µM | MOLT-4 47 µM | SNB-19 88.3 µM | SN12C > 100 µM | SNB-78 > 100 µM | NCI-H460 49.1 µM | HOP-62 90.8 µM | ACHN > 100 µM | U-251 > 100 µM
